Measured values from patent US20210267948A1, “TREATMENT OF CANCER” (CITY OF HOPE, priority 2017, published 2021).

Assays:
[1] = tested on: HCC1937+BRCA1 tumors; assay: Orthotopic tumor model, HCC1937+BRCA1; assay type: in vivo, mouse; conditions: HCC1937+BRCA1 in mammary fat pads, NSG mice, daily oral 400 mg/kg, 28 days
Protocol: (§1) Orthotopic Tumor Model. Experiments in mice were conducted under a protocol approved by the IACUC of City of Hope. Because HCC1937 and HCC1937+BRCA1 cells form slow-growing tumors, they were implanted using MATRIGEL™ (Becton-Dickinson Biosciences). To establish tumors, 4×10^6 cells in 200 μL serum-free medium containing 50% MATRIGEL™ were injected into the mammary fat pads around the inguinal area of a pair of 8 week old female NSG mice. Once the initial tumors reached 13 mm in diameter, they were dissected out, minced into 3 mm pieces and implanted into the inguinal area of the mammary fat pads of the experimental mice. Tumors were measured over a 28-day period, and for each time point, the student t-test was used to determine the statistical significance between daily gavage with 400 mg/kg COH29 in 30% solutol and corresponding vehicle control. Thep value less than 0.05 (2 sides) was considered to indicate statistical significance

[2] = tested on: MCF-7 p53−/−; assay: DNA damage checkpoint Western blot, MCF-7 p53-/-; assay type: cell-based, human
Protocol: FIG. 6. COH29 treatment activates DNA damage checkpoint. The effect of COH29 treatment on DNA damage checkpoint proteins in human breast cancer cells expressing wt p53 (MCF-7) or defective for p53 (MCF-7p53−/−), and in triple-negative breast cancer cells (MDA-MB-468) assessed by Western Blot.
For subcellular fractionation, cells were trypsinized and washed with cold PBS solution twice. After centrifugation at 1,200 g for 5 min, cells were incubated in buffer (50 mM HEPES, pH 7.5, 150 mM NaCl, 1 mM EDTA) containing 0.2% NONIDET™ P-40 (NP-40), supplemented with protease inhibitors (5 μg/ml each of pepstatin, leupeptin, and aprotinin) and phosphatase inhibitors on ice for 5 min. Following centrifugation at 1,000 g for 5 min, the supernatant was collected (i.e., cytoplasmic fraction) and pellets were washed with the same buffer twice. The washed samples were extracted for 40 min on ice with fractionation buffer containing 0.5% NP-40 for nuclear fraction. All the samples were sonicated and clarified by centrifugation at 16,000 g for 15 min. Protein concentrations of all fractions were determined with Bio-Rad Protein Assay (Bio-Rad Laboratories, Hercules, Calif.). Immunoblotting was performed as described previously (21,22). […] The immunoblots were visualized on film with the West-Q chemi-luminescence kit (GenDEPOT, Barker, Tex.).

[3] = tested on: HCC1937 tumors; assay: Orthotopic tumor model, HCC1937; assay type: in vivo, mouse; conditions: HCC1937 in mammary fat pads, NSG mice, daily oral 400 mg/kg, 28 days
Protocol: as §1

[4] = molecular target: T1, PARP1 (Homo sapiens, UniProt P09874); assay: PARP1 Chemiluminescent Assay on lysates of treated cells; assay type: cell-based
T1 construct: endogenous in cells; host or cells: HCC1937, HCC1937+BRCA1, UWB1.289 and UWB1.289+BRCA1 human cancer cells (lysates)
Protocol: The PARP1 activity was determined using the PARP1 Chemiluminescent Assay Kit (BPS Bioscience, San Diego) according to the manufacturer's protocol. Briefly, the ribosylation reaction was carried out with activated DNA in PARP assay buffer using test inhibitor, positive control, substrate control and blank reactions, for 1 hour at 25° C. Detection was by streptavidin-HRP with chemiluminescent substrate A and B read in a luminometer. NZebrafish (Danio rerio) were obtained from zebrafish Core facility of Taipei Medical University and maintained at 28° C. on a 14 h light/10 h dark cycle. Embryos were incubated at 28° C. and different developmental stages were determined as described (25). Wild-type embryos were treated with different concentrations of HU (0, 5, 10, 20, 50 mM) or COH29 (0, 10, 20, 50, 100 μM) at 20 hpf to evaluate the mutagenic effect. Fifteen embryos were treated per well condition. […] Embryos were observed using an Olympus IX70-FLA inverted fluorescence microscope. Images were taken using SPOT digital camera system (Diagnostic Instruments, Sterling Heights, Mich., USA) and assembled with Image) software (26).
To determine if COH29 inhibited hPARP1, PARP1 activity was examined in lysates of cells treated with or without COH29 for 4 h, 8 h or 24 h.

[5] = GLP toxicity study in dogs; assay type: in vivo; conditions: for Toxicity: Beagles, top dose 42 mg/kg
Source text: Toxicity studies in rats and dogs at doses equivalent to 10× that dose have not shown toxicity at 10 or 21 days.

[6] = Exposure in animal toxicology studies; conditions: in vivo, read-out: AUC, maximum level observed
Protocol: Maximum dose level is capped at 2400 mg/day (Dose Level 8) corresponding to closest highest level achieved in animal studies. […] Intrapatient dose escalation is permissible if a dose level has been cleared.

[7] = tested on: MOLT-4 xenograft tumors; assay: MOLT-4 mouse xenograft; assay type: in vivo; conditions: MOLT-4, oral twice daily 50 and 100 mg/kg, 12 days
Protocol: FIGS. 12A-12D depict the activity of COH29 in mouse xenografts. Cancer cells were implanted and allowed to grow at the subcutaneous site until the tumor was measurable. Subcutaneous xenograft growth curves for leukemic-(MOLT-4) mice treated for 12 days with oral COH29 in twice-daily dosing at 50 and 100 mg/kg (FIG. 12A) and for ovarian cancer bearing mice (TOV112D) treated for 7 days with 200, 300, or 400 mg/kg of oral COH29 (FIG. 12B) (shown are the average±SDs for 4 animals/group). FIG. 12C depicts the activity of RNR in MOLT-4 tumor xenografts from mice treated with vehicle (solutol-15) or 100 mg/kg of oral COH29 for 12 days. FIG. 12D depicts the effect of oral COH29 on intratumoral dTNP pools from MOLT-4 tumor xenografts.

[8] = HCC1937 lacking BRCA1, 24 h incubation
[9] = UWB1.289 lacking BRCA1, 8 h treatment

T1 sequence (P09874 whole entry): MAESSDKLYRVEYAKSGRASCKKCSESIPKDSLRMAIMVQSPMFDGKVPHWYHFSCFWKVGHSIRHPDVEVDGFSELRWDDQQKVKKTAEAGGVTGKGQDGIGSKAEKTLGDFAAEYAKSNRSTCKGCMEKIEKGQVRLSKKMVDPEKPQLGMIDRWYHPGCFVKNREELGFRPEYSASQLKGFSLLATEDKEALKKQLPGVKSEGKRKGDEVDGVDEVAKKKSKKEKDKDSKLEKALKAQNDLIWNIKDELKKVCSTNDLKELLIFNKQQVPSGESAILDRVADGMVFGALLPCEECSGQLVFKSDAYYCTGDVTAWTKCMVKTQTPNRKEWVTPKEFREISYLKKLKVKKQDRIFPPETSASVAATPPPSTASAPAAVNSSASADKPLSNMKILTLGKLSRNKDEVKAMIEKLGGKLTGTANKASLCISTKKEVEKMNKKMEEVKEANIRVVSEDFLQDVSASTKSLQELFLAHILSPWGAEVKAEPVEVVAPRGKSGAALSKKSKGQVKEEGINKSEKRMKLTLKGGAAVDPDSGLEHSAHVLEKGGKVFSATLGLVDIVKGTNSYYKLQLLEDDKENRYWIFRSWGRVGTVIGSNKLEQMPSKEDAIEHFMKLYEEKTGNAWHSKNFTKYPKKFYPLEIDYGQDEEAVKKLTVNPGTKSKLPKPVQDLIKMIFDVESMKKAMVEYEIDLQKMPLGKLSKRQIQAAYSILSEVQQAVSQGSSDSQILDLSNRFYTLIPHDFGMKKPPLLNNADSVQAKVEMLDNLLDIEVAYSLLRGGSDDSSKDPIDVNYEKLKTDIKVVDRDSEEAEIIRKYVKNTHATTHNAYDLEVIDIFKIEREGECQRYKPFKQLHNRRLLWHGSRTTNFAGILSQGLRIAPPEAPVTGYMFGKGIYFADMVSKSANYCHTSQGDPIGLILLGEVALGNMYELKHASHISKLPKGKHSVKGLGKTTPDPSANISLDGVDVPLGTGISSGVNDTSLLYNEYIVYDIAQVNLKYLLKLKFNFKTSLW

Q: What does the source list for O=C(Nc1nc(-c2ccc(O)c(O)c2)c(-c2ccccc2)s1)c1ccc(O)c(O)c1 [COH29, N-(4-(3,4-dihydroxyphenyl)-5-phenylthiazol-2-yl)-3,4-dihydroxybenzamide]?
A: tumor size vs vehicle controls [1]: not significantly smaller; DNA damage checkpoint proteins (ATM, CHK1, CHK2) [2]: similarly modified; γ-H2AX level [2]: increase; growth of tumors vs vehicle [3]: significantly (p=0.0007) suppressed; PARP1 activity decreased by ([4]; HCC1937+BRCA1, 24 h incubation): 12.66%; PARP1 activity, COH29 treated ([4]; HCC1937+BRCA1, 24 h incubation): 2041097 cps; PARP1 activity decreased by [4, 8]: 41.08%; PARP1 activity, COH29 treated [4, 8]: 427851 cps; PARP1 activity rose by ([4]; UWB1.289+BRCA1, 8 h treatment): 46.31%; PARP1 activity, COH29 treated ([4]; UWB1.289+BRCA1, 8 h treatment): 2129944 cps; PARP1 activity decreased by [4, 9]: 31.79%; PARP1 activity, COH29 treated [4, 9]: 774611 cps; Toxicity ([5]; 10 days): none; Toxicity ([5]; 21 days): none; NOAEL ([5]; beagle, dog, in vivo): 84 mg/kg/day; AUC [6]: 5000 ng·h/mL; xenograft tumor growth [7]: inhibited
